From publication PMC8333425, “Discovery of a dual Ras and ARF6 inhibitor from a GPCR endocytosis screen” (Nature Communications, 2021)
Where “and” joins values, the source holds several entries; their conditions need not be identical. Identical values can stand only once.

Key:
PKC = PKC BRET sensor, AT1R-mediated; assay type: cell-based, human
Protocol: HEK293SL cells were seeded at a density of 7.5 × 10^5 cells per 100-mm dish and 24 h later, transiently transfected as such. For receptor internalization experiments, cells were transfected with 0.12 μg AT1R-RlucII, B2R-RlucII, or β2AR-RlucII and 0.48 μg of either rGFP-CAAX (to assess removal from the PM) or rGFP-FYVE (to assess accumulation in the endosomes). For β-arrestin recruitment assays, cells were transfected with 0.48 μg of receptor-YFP along with 0.12 μg of β-arrestin-RlucII. For β-arrestin/AP-2 binding experiments, cells were transfected with 1 μg Flag-AT1R, 1 μg β2-Adaptin-YFP, and 0.12 μg β-arrestin2-RlucII. […] For kinetics of β-arrestin recruitment or β-arrestin binding to receptor and AP-2 experiments, cells were serum starved for 30 min, pretreated with 21 (50 µM) or Barbadin (100 µM) for 30 min, stimulated with 100 nM AngII or 1 µM BK and BRET signals were monitored at indicated times using a Victor X Light plate reader (PerkinElmer). […] The BRET ratio was determined by calculating the ratio of the light emitted by YFP over the light emitted by the RlucII. […] For the kinetics of GTPase and PI3K/Akt activation, cells were serum starved, pretreated with 21 (50 µM) or Wortmannin (200 nM) for 30 min, stimulated with ligand (100 nM AngII or 100 ng/ml EGF) and BRET signals were monitored at indicated times. […]

ARF6 = target: T1, ARF6 (Homo sapiens, UniProt P62330); experiment: GST-GGA3-PBD pull-down of EGFR-mediated ARF6 activation in MDA-MB-231 cells; assay type: cell-based; conditions: 50 μM
T1 construct: expressed in transfected cells; host or cells: HEK293SL
Protocol: Activation of ARF1, ARF6, Ras, and Rho were assessed by using GST pull-down assays. HEK293SL cells were transiently transfected with 3 µg AT1R-flag only (Ras and Rho) or along with 500 ng HA-ARF6 (ARF6) or HA-ARF1 (ARF1). Forty-eight hours later, the HEK293 or MDA-MB-231 cells were serum-starved for 4 h with DMEM containing 20 mM HEPES then pretreated with DMSO or Rasarfin (50 µM) for 30 min. Cells were then stimulated with 1 µM AngII or 100 ng/ml EGF for 0 and 2 min. Cells were then washed once with ice-cold PBS and lysed for 30 min at 4 °C in 300 µl of lysis buffer (pH 7.5, 50 mM Tris-HCl, 140 mM NaCl, 5 mM MgCl2, 10% glycerol (v/v), 1% Nonidet P-40 (v/v), 1 mM dithiothreitol) supplemented with protease inhibitors (1 mM phenylmethyl-sulfonyl fluoride (PMSF), 10 µg/ml leupeptin, 5 µg/ml aprotinin, 1 µg/ml pepstatin A) and phosphatase inhibitors (20 mM NaF, 0.025 mM pervanadate). The samples were cleared by centrifugation and 30 µl (cell lysates) was kept for assessing total protein contents. The remaining was transferred to fresh tubes with 20 µg of either GST, GST-GGA3-PBD, GST-Raf1-RBD or GST-Rhotekin-RBD coupled to glutathione resin and rotated for 1–2 h at 4 °C. […] ImageLab 5.2 software was used to quantify the digital blots as fold of the amount of pulled down protein over total protein. […]

PI3K/Akt = PI3K/Akt BRET sensor (Akt (PH)-RlucII / rGFP-CAAX), EGFR-mediated; assay type: cell-based, human
Protocol: HEK293SL cells were seeded at a density of 7.5 × 10^5 cells per 100-mm dish and 24 h later, transiently transfected as such. For receptor internalization experiments, cells were transfected with 0.12 μg AT1R-RlucII, B2R-RlucII, or β2AR-RlucII and 0.48 μg of either rGFP-CAAX (to assess removal from the PM) or rGFP-FYVE (to assess accumulation in the endosomes). For β-arrestin recruitment assays, cells were transfected with 0.48 μg of receptor-YFP along with 0.12 μg of β-arrestin-RlucII. For β-arrestin/AP-2 binding experiments, cells were transfected with 1 μg Flag-AT1R, 1 μg β2-Adaptin-YFP, and 0.12 μg β-arrestin2-RlucII. For G protein activation, cells were transfected with 3 μg of sp-Flag-AT1R along with either 4.5 μg of the Gαq-polycistronic BRET sensor or 0.24 μg of the Gαi3-RlucII and 0.6 μg of GFP10-Gγ2 and Gβ1 sensors or 0.12 μg PKN-RBD-RlucII and 0.48 μg of rGFP-CAAX. For PKC activation, cells were transfected with 3 μg of sp-Flag-AT1R and 0.18 μg of the PKC sensor. For GTPase activation experiments, cells were transfected with 1 μg Flag-AT1R, 0.48 μg of rGFP-CAAX, and either 0.12 μg of GGA3-PBD-RlucII, PAK-CRIB-RlucII or Raf-RBD-RlucII. For biosensor validation experiments, cells were additionally transfected with 500 ng Flag-K-Ras-WT, Flag-K-Ras-G12V, Flag-K-Ras-SOS-CAAX, HA-ARF6-WT, HA-ARF6-T27N, Myc-Rac1-WT, Myc-Rac1-Q61L or Myc-Rac1-T17N. For PI3K/Akt activation experiments, cells were transfected with 0.48 μg of rGFP-CAAX and 0.12 μg of Akt (PH)-RlucII. After 18 h of transfection, the media was replaced and cells were divided for subsequent experiments. Cells were detached and seeded onto poly-L-ornithine-coated 96-well flat white bottom plates (BrandTech Scientific) at a density of 2.5 × 10^4 cells per well in media. The next day, cells were washed once with Tyrode’s buffer (140 mM NaCl, 2.7 mM KCl, 1 mM CaCl2, 12 mM NaHCO3, 5.6 mM D-glucose, 0.5 mM MgCl2, 0.37 mM NaH2PO4, 25 mM HEPES, pH 7.4) and left in Tyrode’s buffer. For kinetics of β-arrestin recruitment or β-arrestin binding to receptor and AP-2 experiments, cells were serum starved for 30 min, pretreated with 21 (50 µM) or Barbadin (100 µM) for 30 min, stimulated with 100 nM AngII or 1 µM BK and BRET signals were monitored at indicated times using a Victor X Light plate reader (PerkinElmer). Coelenterazine H (final concentration of 5 µM) was added 3–5 min prior to BRET measurements. Filter set was 460/80 nm and 535/30 nm for detecting the RlucII Renilla luciferase (donor) and YFP (acceptor) light emissions, respectively. The BRET ratio was determined by calculating the ratio of the light emitted by YFP over the light emitted by the RlucII. For G protein activation, cells were serum starved, pretreated with compounds for 30 min, stimulated with 100 nM AngII for 2 min (Gαq, Gαi3, and Rho sensors) or 5 min (PKC sensor). For the kinetics of GTPase and PI3K/Akt activation, cells were serum starved, pretreated with 21 (50 µM) or Wortmannin (200 nM) for 30 min, stimulated with ligand (100 nM AngII or 100 ng/ml EGF) and BRET signals were monitored at indicated times. For concentration-response curves, cells were serum-starved, pretreated with various concentrations of compounds for 30 min and stimulated with ligand (100 nM AngII, 1 µM BK, 10 µM Isoproterenol (Iso) or 100 ng/ml EGF) in Tyrode’s buffer for 30 min for receptor internalization, 10 min for ARF6, 2 min for Rac and Rho activation and 5 min for Ras activation and PI3K/Akt activation. BRET signals were monitored using a Synergy2 (BioTek) microplate reader and coelenterazine 400a (final concentrations of 5 µM) added 3–5 min prior to BRET measurements. Filter set was 410/80 nm and 515/30 nm for detecting the RlucII Renilla luciferase (donor) and rGFP/GFP10 (acceptor) light emissions, respectively. The BRET ratio was determined by calculating the ratio of the light emitted by rGFP/GFP10 over the light emitted by the RlucII.

T1 sequence (P62330 whole entry, species assumed): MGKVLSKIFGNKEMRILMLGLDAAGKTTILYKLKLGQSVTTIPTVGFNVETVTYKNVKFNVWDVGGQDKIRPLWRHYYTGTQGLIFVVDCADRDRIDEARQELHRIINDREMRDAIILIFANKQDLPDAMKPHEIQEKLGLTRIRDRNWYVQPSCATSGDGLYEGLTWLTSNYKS

CC(C)C(=O)N1CCN(c2ccc(NC(=O)c3cc4ccccc4o3)cc2Cl)CC1 [Compound 21]
AT1R-mediated PKC activation (PKC; 50 μM): did not inhibit AT1R-mediated PKC activation | PKC BRET sensor signal (S_Fig.4b), single experiments (PKC; listed as Comp 21): 0.07767 and 0.069 and 0.0815 | ARF6 activity in MDA-MB-231 cells (pull-down) (ARF6): inhibited | IC50 (PI3K/Akt; Homo sapiens, read-out: potency for inhibition of EGFR-mediated Akt (BRET assay)): 4 to 5 µM | EGF-promoted BRET (PI3K/Akt; Log [Comp 21] (M) -4.30103): 0.039 and 0.07107 and 0.056 | EGF-promoted BRET (PI3K/Akt; Log [Comp 21] (M) -5.32288): 0.1533 and 0.2873 and 0.2883 | EGF-promoted BRET (PI3K/Akt; Log [Comp 21] (M) -6): 0.6727 and 0.6567 and 0.6163 | EGF-promoted BRET (PI3K/Akt; Log [Comp 21] (M) -6.32288): 0.7007 and 0.6398 and 0.6137 | EGF-promoted BRET (PI3K/Akt; Log [Comp 21] (M) -7): 0.7123 and 0.6372 and 0.6493
